Source: patent US12357623B2, “Method for treating a disease or condition using a pyrazole compound or formulation thereof” (Rigel Pharmaceuticals, Inc., priority 2021, dated 2025)
Structures can show the parent of a compound that is named as a salt. Values belong to the compound of their own block, whether it stands above or below them.

Assays:
[1] = Physical and chemical stability of salts of compound I-18; type: physicochemical; settings: for Area (%) of peak at RRT 1.00: main peak; for Area (%) of peak at RRT 1.17: peak corresponds to I-1 formed by hydrolysis; for Initial purity: before storage
Experimental: The physical and chemical stability of the K salt, Arginine salt, Choline salt and Tris salt were evaluated under conditions of 25° C./60% RH and 40° C./75% RH for 1 week. Each sample was added into 3 mL glass vials, sealed by parafilm with several holes, and kept under tested condition. After one week, samples was taken for XRPD and HPLC purity test.

[2] = Hygroscopicity evaluation (DVS) of salts of compound I-18; type: physicochemical; settings: 25° C.
Experimental: To investigate the solid form stability as a function of humidity, DVS isotherm plot of the K salt, Arginine salt, Choline salt and Tris salt were collected at 25° C. between 0 and 95% RH.

[3] = Pharmacokinetics in cynomolgus monkeys (co-crystal and spray-dried dispersion capsules); type: in vivo; settings: male cynomolgus monkeys (n=3/group), capsule equivalent to 25 mg compound I-1
Experimental: Two groups of male cynomolgus monkeys (n=3/group) were administered test articles in a 3-way crossover design as indicated in Table 2. The washout period between doses was 3-4 days. Test article capsules were prepared such that each capsule contained an equivalent of 25 mg of free base compound I-1. The organic stock solution of compound I-1 was prepared at a concentration of 5 mg/ml using TPGS/PEG400/PG, and was diluted with apple juice within 1 hour of dosing (PO) at 1 part stock solution to 3 parts apple juice.
FIGS. 11-14 provide graphs of the plasma concentrations obtained from administering the co-crystal formulations of compound I-1 to monkeys. And Table 3 provides pharmacokinetic (PK) data for the co-crystal formulations, including the average area under the curve (AUC) and percent bioavailability.
FIG. 19 provides PK data for one embodiment of the disclosed spray-dried formulation, and the organic/juice formulation.

[4] = 25° C./60% RH, 1 week, listed as tris salt
[5] = 40° C./75% RH, 1 week, listed as tris salt
[6] = 25° C./60% RH, 1 week, listed as potassium salt
[7] = 40° C./75% RH, 1 week, listed as potassium salt
[8] = Initial, listed as potassium salt
[9] = 25° C./60% RH, 1 week, listed as arginine salt
[10] = 40° C./75% RH, 1 week, listed as arginine salt
[11] = Initial, listed as arginine salt
[12] = 25° C./60% RH, 1 week, listed as choline salt
[13] = 25° C./60% RH/1 week, listed as Choline salt
[14] = 40° C./75% RH, 1 week, listed as choline salt
[15] = Initial, listed as choline salt

Compound: CCO[C@H]1CC[C@H](n2cc(NC(=O)c3csc(-c4cnn(C(C)OP(=O)(O)O)c4)n3)c(-c3nc(F)ccc3F)n2)CC1 (stereo partly drawn) [Compound I-49, 1-(4-(4-((3-(3,6-difluoropyridin-2-yl)-1-((1r, 4r)-4-ethoxycyclohexyl)-1H-pyrazol-4-yl)carbamoyl)thiazol-2-yl)-1H-pyrazol-1-yl)ethyl dihydrogen phosphate tris salt]
Area (%) of peak at RRT 1.13 ([1]; 25° C./60% RH, 1 week): 0.06%
Area (%) of peak at RRT 0.77 [1, 4]: <0.03%
Area (%) of peak at RRT 1.45 [1, 4]: 0.35%
Area (%) of peak at RRT 1.71 [1, 4]: 0.80%
Area (%) of peak at RRT 1.73 [1, 4]: 0.55%
HPLC purity change [1, 4]: no HPLC purity decrease
Area (%) of peak at RRT 1.00 [1, 4]: 96.61%
Area (%) of peak at RRT 1.17 [1, 4]: 1.63%
Form change (XRPD) ([1]; 25° C./60% RH/1 week, listed as Tris salt): no form change and No
Area (%) of peak at RRT 0.77 [1, 5]: 0.03%
Area (%) of peak at RRT 1.45 [1, 5]: 0.47%
Area (%) of peak at RRT 1.71 [1, 5]: 0.88%
Area (%) of peak at RRT 1.73 [1, 5]: 0.84%
HPLC purity change [1, 5]: a purity decrease was observed
Area (%) of peak at RRT 1.00 [1, 5]: 95.03%
Area (%) of peak at RRT 1.17 [1, 5]: 2.69%
Form change (XRPD) ([1]; 40° C./75% RH/1 week, listed as Tris salt): no form change and No
Area (%) of peak at RRT 0.77 ([1]; Initial, listed as tris salt): <0.03%
Area (%) of peak at RRT 1.13 ([1]; Initial, listed as tris salt): 0.07%
Area (%) of peak at RRT 1.45 ([1]; Initial, listed as tris salt): 0.37%
Area (%) of peak at RRT 1.71 ([1]; Initial, listed as tris salt): 0.86%
Area (%) of peak at RRT 1.73 ([1]; Initial, listed as tris salt): 0.76%
Area (%) of peak at RRT 1.00 ([1]; Initial, listed as tris salt): 96.06%
Area (%) of peak at RRT 1.17 ([1]; Initial, listed as tris salt): 1.87%
Initial purity ([1]; listed as Tris salt): 96.06 area %
water uptake (DVS) ([2]; at 70% RH, listed as Tris salt): 6.06%
water uptake (DVS) ([2]; at 95% RH, listed as Tris salt): 39.5%

percent bioavailability (% F) of compound I-1 [3]: 7.9%
Compound: CCO[C@H]1CC[C@H](n2cc(NC(=O)c3csc(-c4cn[nH]c4)n3)c(-c3nc(F)ccc3F)n2)CC1.O=P(O)(O)O [Compound I-104, N-(3-(3,6-difluoropyridin-2-yl)-1-((1r, 4r)-4-ethoxycyclohexyl)-1H-pyrazol-4-yl)-2-(1H-pyrazol-4-yl)thiazole-4-carboxamide phosphate]

Compound: CCO[C@H]1CC[C@H](n2cc(NC(=O)c3csc(-c4cnn(C(C)OP(=O)(O)O)c4)n3)c(-c3nc(F)ccc3F)n2)CC1 (stereo partly drawn) [Compound I-108, potassium 1-(4-(4-((3-(3,6-difluoropyridin-2-yl)-1-((1r, 4r)-4-ethoxycyclohexyl)-1H-pyrazol-4-yl)carbamoyl)thiazol-2-yl)-1H-pyrazol-1-yl)ethyl hydrogen phosphate]
Area (%) of peak at RRT 1.14 ([1]; 25° C./60% RH, 1 week): <0.04%
Area (%) of peak at RRT 1.40 ([1]; 25° C./60% RH, 1 week): 0.25%
Area (%) of peak at RRT 1.44 ([1]; 25° C./60% RH, 1 week): 0.30%
Area (%) of peak at RRT 1.70 ([1]; 25° C./60% RH, 1 week): 0.27%
Area (%) of peak at RRT 1.72 ([1]; 25° C./60% RH, 1 week): 0.78%
Area (%) of peak at RRT 1.81 ([1]; 25° C./60% RH, 1 week): <0.04%
HPLC purity change ([1]; 25° C./60% RH, 1 week, listed as K salt): slight purity decrease
Area (%) of peak at RRT 1.00 [1, 6]: 96.26%
Area (%) of peak at RRT 1.17 [1, 6]: 2.14%
Form change (XRPD) ([1]; 25° C./60% RH/1 week, listed as K salt): no form change and No
Area (%) of peak at RRT 1.14 ([1]; 40° C./75% RH, 1 week): 0.05%
Area (%) of peak at RRT 1.40 ([1]; 40° C./75% RH, 1 week): 0.39%
Area (%) of peak at RRT 1.44 ([1]; 40° C./75% RH, 1 week): 0.24%
Area (%) of peak at RRT 1.70 ([1]; 40° C./75% RH, 1 week): 0.24%
Area (%) of peak at RRT 1.72 ([1]; 40° C./75% RH, 1 week): 0.83%
Area (%) of peak at RRT 1.81 ([1]; 40° C./75% RH, 1 week): 0.04%
HPLC purity change ([1]; 40° C./75% RH, 1 week, listed as K salt): slight purity decrease
Area (%) of peak at RRT 1.00 [1, 7]: 96.40%
Area (%) of peak at RRT 1.17 [1, 7]: 1.80%
Form change (XRPD) ([1]; 40° C./75% RH/1 week, listed as K salt): a form change was observed and Yes
Area (%) of peak at RRT 1.14 ([1]; Initial): <0.04%
Area (%) of peak at RRT 1.40 ([1]; Initial): 0.23%
Area (%) of peak at RRT 1.44 ([1]; Initial): 0.21%
Area (%) of peak at RRT 1.70 ([1]; Initial): 0.18%
Area (%) of peak at RRT 1.72 ([1]; Initial): 0.77%
Area (%) of peak at RRT 1.81 ([1]; Initial): <0.04%
Area (%) of peak at RRT 1.00 [1, 8]: 97.27%
Area (%) of peak at RRT 1.17 [1, 8]: 1.33%
Initial purity ([1]; listed as K salt): 97.27 area %
water uptake (DVS) ([2]; at 70% RH, listed as K salt): 0.42%
water uptake (DVS) ([2]; at 95% RH, listed as K salt): 16.5%

Compound: CCO[C@H]1CC[C@H](n2cc(NC(=O)c3csc(-c4cnn(C(C)OP(=O)(O)O)c4)n3)c(-c3nc(F)ccc3F)n2)CC1 (stereo partly drawn) [Compound I-110, 1-(4-(4-((3-(3,6-difluoropyridin-2-yl)-1-((1r, 4r)-4-ethoxycyclohexyl)-1H-pyrazol-4-yl)carbamoyl)thiazol-2-yl)-1H-pyrazol-1-yl)ethyl dihydrogen phosphate arginine salt]
Area (%) of peak at RRT 1.13 ([1]; 25° C./60% RH, 1 week): 0.06%
Area (%) of peak at RRT 0.77 [1, 9]: 0.03%
Area (%) of peak at RRT 1.35 [1, 9]: 0.06%
Area (%) of peak at RRT 1.45 [1, 9]: 0.50%
Area (%) of peak at RRT 1.71 [1, 9]: 0.74%
Area (%) of peak at RRT 1.73 [1, 9]: 0.61%
HPLC purity change [1, 9]: slight purity decrease
Area (%) of peak at RRT 1.00 [1, 9]: 95.31%
Area (%) of peak at RRT 1.17 [1, 9]: 2.68%
Form change (XRPD) ([1]; 25° C./60% RH/1 week, listed as Arginine salt): no form change and No
Area (%) of peak at RRT 1.13 ([1]; 40° C./75% RH, 1 week): 0.06%
Area (%) of peak at RRT 0.77 [1, 10]: 0.04%
Area (%) of peak at RRT 1.35 [1, 10]: 0.11%
Area (%) of peak at RRT 1.45 [1, 10]: 0.47%
Area (%) of peak at RRT 1.71 [1, 10]: 0.73%
Area (%) of peak at RRT 1.73 [1, 10]: 0.60%
HPLC purity change [1, 10]: slight purity decrease
Area (%) of peak at RRT 1.00 [1, 10]: 95.50%
Area (%) of peak at RRT 1.17 [1, 10]: 2.48%
Form change (XRPD) ([1]; 40° C./75% RH/1 week, listed as Arginine salt): no form change and No
Area (%) of peak at RRT 1.35 ([1]; Initial): <0.03%
Area (%) of peak at RRT 0.77 [1, 11]: <0.03%
Area (%) of peak at RRT 1.13 [1, 11]: <0.03%
Area (%) of peak at RRT 1.45 [1, 11]: 0.44%
Area (%) of peak at RRT 1.71 [1, 11]: 0.73%
Area (%) of peak at RRT 1.73 [1, 11]: <0.53%
Area (%) of peak at RRT 1.00 [1, 11]: 95.91%
Area (%) of peak at RRT 1.17 [1, 11]: 2.39%
Initial purity ([1]; listed as Arginine salt): 95.91 area %
water uptake (DVS) ([2]; at 80% RH): 1.43%
hygroscopicity (DVS) ([2]; from water uptake at 80% RH): slight hygroscopic

Compound: CCO[C@H]1CC[C@H](n2cc(NC(=O)c3csc(-c4cnn(C(C)OP(=O)(O)O)c4)n3)c(-c3nc(F)ccc3F)n2)CC1 (stereo partly drawn) [Compound I-111, 1-(4-(4-((3-(3,6-difluoropyridin-2-yl)-1-((1r, 4r)-4-ethoxycyclohexyl)-1H-pyrazol-4-yl)carbamoyl)thiazol-2-yl)-1H-pyrazol-1-yl)ethyl dihydrogen phosphate choline salt]
Area (%) of peak at RRT 0.77 [1, 12]: 0.04%
Area (%) of peak at RRT 1.35 [1, 12]: 0.10%
Area (%) of peak at RRT 1.45 [1, 12]: 0.07%
Area (%) of peak at RRT 1.71 [1, 12]: 0.05%
Area (%) of peak at RRT 1.73 [1, 12]: 0.46%
HPLC purity change [1, 12]: no HPLC purity decrease
Area (%) of peak at RRT 1.00 [1, 12]: 98.66%
Area (%) of peak at RRT 1.17 [1, 12]: 0.58%
Form change (XRPD) [1, 13]: no form change and No
Purity/Initial purity [1, 13]: 100.0%
Area (%) of peak at RRT 0.77 [1, 14]: 0.04%
Area (%) of peak at RRT 1.35 [1, 14]: 0.14%
Area (%) of peak at RRT 1.45 [1, 14]: 0.11%
Area (%) of peak at RRT 1.71 [1, 14]: 0.08%
Area (%) of peak at RRT 1.73 [1, 14]: 0.46%
HPLC purity change [1, 14]: a purity decrease was observed
Area (%) of peak at RRT 1.00 [1, 14]: 97.81%
Area (%) of peak at RRT 1.17 [1, 14]: 1.31%
Form change (XRPD) ([1]; 40° C./75% RH/1 week, listed as Choline salt): no form change and No
Area (%) of peak at RRT 1.35 ([1]; Initial): <0.03%
Area (%) of peak at RRT 0.77 [1, 15]: 0.03%
Area (%) of peak at RRT 1.13 [1, 15]: 0.06%
Area (%) of peak at RRT 1.45 [1, 15]: 0.06%
Area (%) of peak at RRT 1.71 [1, 15]: 0.06%
Area (%) of peak at RRT 1.73 [1, 15]: 0.33%
Area (%) of peak at RRT 1.00 [1, 15]: 98.70%
Area (%) of peak at RRT 1.17 [1, 15]: 0.75%
Initial purity ([1]; listed as Choline salt): 98.70 area %
water uptake (DVS) ([2]; at 70% RH, listed as Choline salt): 3.66%
water uptake (DVS) ([2]; at 95% RH, listed as Choline salt): 32.4%
